The record followed here is US9376436B2, “2-(pyridin-2yl)-1, 7-diaza-spiro [4.4] nonane-6-one compound as voltage-gated sodium channels modulators” (CONVERGENCE PHARMACEUTICALS LIMITED, priority 2011, dated 2016).

For this test, the target named is T1, hNaV1.7 (Homo sapiens, UniProt Q15858).
T1 construct: expressed in transfected cells; host or cells: HEK293
The experiment in a line: QPatch NaV1.7 assay (whole-cell patch clamp, QPatch16x). Format: cell-based. The following applies: HEK293-hNaV1.7 cells. The procedure, abridged: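 Automated whole-cell recordings in hNaV1.7-expressing HEK293 cells, holding at either −90 mV (mostly closed channels) or the half-inactivation voltage. Compounds applied cumulatively at four concentrations for 120 s each; peak current on 20 ms depolarisation to 0 mV fitted by Hill equation to yield pIC50.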

Where [1] appears, read: holding voltage V1/2 SSI (half of channels inactivated), read-out: QP Nav1.7 SSI vhalf pIC50 (converted).
The mark [2] stands for this setting: holding voltage −90 mV (most channels closed), read-out: QP Nav1.7 −90 mV pIC50 (converted).

Each structure is given as a SMILES string. Where a name gives a salt, the structure may show the parent alone. Read-outs that look alike come from different tables or passages of the source.

T1 sequence (Q15858 whole entry): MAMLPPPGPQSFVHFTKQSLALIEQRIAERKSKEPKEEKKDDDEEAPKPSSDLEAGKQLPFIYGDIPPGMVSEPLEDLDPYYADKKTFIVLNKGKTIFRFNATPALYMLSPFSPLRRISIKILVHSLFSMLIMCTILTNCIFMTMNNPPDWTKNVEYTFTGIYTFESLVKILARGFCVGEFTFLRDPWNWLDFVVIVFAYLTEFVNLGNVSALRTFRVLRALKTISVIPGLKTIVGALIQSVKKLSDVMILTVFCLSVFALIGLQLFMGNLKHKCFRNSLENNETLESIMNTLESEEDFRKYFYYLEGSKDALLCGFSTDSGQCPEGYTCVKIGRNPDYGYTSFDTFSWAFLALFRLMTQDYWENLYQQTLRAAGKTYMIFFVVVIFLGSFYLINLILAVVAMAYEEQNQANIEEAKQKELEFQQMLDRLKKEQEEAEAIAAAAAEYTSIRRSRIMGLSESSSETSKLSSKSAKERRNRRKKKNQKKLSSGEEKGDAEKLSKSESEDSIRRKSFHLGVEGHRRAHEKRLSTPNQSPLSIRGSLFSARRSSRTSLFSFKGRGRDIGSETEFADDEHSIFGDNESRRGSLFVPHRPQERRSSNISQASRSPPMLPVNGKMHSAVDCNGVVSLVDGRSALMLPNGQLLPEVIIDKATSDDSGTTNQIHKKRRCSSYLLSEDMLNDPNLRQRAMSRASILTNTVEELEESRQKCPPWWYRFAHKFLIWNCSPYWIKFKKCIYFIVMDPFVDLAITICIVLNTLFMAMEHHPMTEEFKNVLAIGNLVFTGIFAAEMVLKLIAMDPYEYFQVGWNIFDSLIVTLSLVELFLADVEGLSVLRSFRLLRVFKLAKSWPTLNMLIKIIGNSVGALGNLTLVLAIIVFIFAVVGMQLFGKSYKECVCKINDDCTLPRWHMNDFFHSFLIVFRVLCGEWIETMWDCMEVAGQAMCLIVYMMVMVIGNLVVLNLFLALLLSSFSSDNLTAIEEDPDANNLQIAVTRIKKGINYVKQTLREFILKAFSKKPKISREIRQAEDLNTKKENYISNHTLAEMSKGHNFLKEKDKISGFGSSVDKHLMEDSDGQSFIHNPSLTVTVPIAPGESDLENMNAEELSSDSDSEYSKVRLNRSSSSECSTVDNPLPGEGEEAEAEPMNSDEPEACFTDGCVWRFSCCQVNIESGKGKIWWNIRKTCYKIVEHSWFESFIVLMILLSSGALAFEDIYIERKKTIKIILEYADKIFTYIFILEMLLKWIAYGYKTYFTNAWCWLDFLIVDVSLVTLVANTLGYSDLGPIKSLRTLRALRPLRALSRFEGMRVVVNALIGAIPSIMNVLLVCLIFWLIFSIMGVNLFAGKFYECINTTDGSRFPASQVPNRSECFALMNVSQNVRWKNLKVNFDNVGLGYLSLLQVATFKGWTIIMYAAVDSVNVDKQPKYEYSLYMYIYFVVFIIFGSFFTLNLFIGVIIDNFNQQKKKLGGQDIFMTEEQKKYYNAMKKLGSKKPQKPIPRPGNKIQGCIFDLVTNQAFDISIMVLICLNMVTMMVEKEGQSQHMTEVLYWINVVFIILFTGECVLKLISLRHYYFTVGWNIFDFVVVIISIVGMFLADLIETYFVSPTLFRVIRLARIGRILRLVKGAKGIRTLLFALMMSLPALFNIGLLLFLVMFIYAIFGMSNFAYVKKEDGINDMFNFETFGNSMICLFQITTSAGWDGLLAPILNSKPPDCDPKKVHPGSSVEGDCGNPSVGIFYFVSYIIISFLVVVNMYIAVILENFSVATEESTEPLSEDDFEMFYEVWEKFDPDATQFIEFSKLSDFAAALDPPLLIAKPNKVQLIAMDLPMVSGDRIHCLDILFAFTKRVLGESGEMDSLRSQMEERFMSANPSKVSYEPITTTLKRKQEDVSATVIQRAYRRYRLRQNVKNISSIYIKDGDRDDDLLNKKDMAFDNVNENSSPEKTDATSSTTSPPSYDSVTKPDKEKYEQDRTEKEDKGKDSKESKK

For the compound `CCOc1ccc(C)c(-c2ccnc([C@H]3CC[C@@]4(CCN(C)C4=O)N3)c2)c1` [Example 178, (2R,5S)-2-[4-(5-Ethoxy-2-methyl-phenyl)-2-pyridyl]-7-methyl-1,7-diazaspiro[4.4]nonan-6-one hydrochloride], the IC50 under setting [1] was 25.1 µM and the IC50 under setting [2] is 631 µM.

Take `CCCOc1cccc(-c2ccnc([C@H]3CC[C@@]4(CCN(C)C4=O)N3)c2)c1` [Example 179, (2R,5S)-7-Methyl-2-[4-(3-propoxyphenyl)-2-pyridyl]-1,7-diazaspiro[4.4]nonan-6-one hydrochloride]: the IC50 is 0.794 µM under setting [1] and 31.6 µM under setting [2].

Consider `CC(C)Oc1ccc(-c2ccnc([C@H]3CC[C@@]4(CCN(C)C4=O)N3)c2)cc1C#N` [Example 180, 2-Isopropoxy-5-[2-[(2R,5S)-7-methyl-6-oxo-1,7-diazaspiro[4.4]nonan-2-yl]-4-pyridyl]benzonitrile hydrochloride], for which the IC50 is, setting by setting: under setting [1], 20 µM; under setting [2], 1000 µM.

As to `CCOc1ccc(Cl)c(-c2ccnc([C@H]3CC[C@@]4(CCN(C)C4=O)N3)c2)c1` [Example 181, (2R,5S)-2-[4-(2-Chloro-5-ethoxy-phenyl)-2-pyridyl]-7-methyl-1,7-diazaspiro[4.4]nonan-6-one hydrochloride], the IC50 is 5.01 µM under setting [1] and 100 µM under setting [2].

For `Cc1ccn(-c2ccc(F)c(-c3ccnc([C@H]4CC[C@@]5(CCN(C)C5=O)N4)c3)c2)n1` [Example 182, (2R,5S)-2-[4-[2-Fluoro-5-(3-methylpyrazol-1-yl)phenyl]-2-pyridyl]-7-methyl-1,7-diazaspiro[4.4]nonan-6-one hydrochloride], the IC50 reads like this: under setting [1], 15.8 µM; under setting [2], 100 µM.

On to `Cc1cnn(-c2ccc(F)c(-c3ccnc([C@H]4CC[C@@]5(CCN(C)C5=O)N4)c3)c2)c1` [Example 183, (2R,5S)-2-[4-[2-Fluoro-5-(4-methylpyrazol-1-yl)phenyl]-2-pyridyl]-7-methyl-1,7-diazaspiro[4.4]nonan-6-one hydrochloride], for which the IC50 is, setting by setting: under setting [1], 3.16 µM; under setting [2], 63.1 µM.

Regarding `CN1CC[C@@]2(CC[C@H](c3cc(-c4cc(-n5cccn5)ccc4F)ccn3)N2)C1=O` [Example 184, (2R,5S)-2-[4-(2-Fluoro-5-pyrazol-1-yl-phenyl)-2-pyridyl]-7-methyl-1,7-diazaspiro[4.4]nonan-6-one hydrochloride], the IC50 was 10 µM under setting [1] and 126 µM under setting [2].

Take `CN1CC[C@@]2(CC[C@H](c3cc(-c4cc(OC5CC5)ccc4F)ccn3)N2)C1=O` [Example 185, (2R,5S)-2-[4-[5-(Cyclopropoxy)-2-fluoro-phenyl]-2-pyridyl]-7-methyl-1,7-diazaspiro[4.4]nonan-6-one hydrochloride]: the IC50 was 7.94 µM under setting [1] and 63.1 µM under setting [2].

Regarding `CN1CC[C@@]2(CC[C@H](c3cc(-c4cc5[nH]ncc5cc4F)ccn3)N2)C1=O` [Example 186, (2R,5S)-2-[4-(5-Fluoro-1H-indazol-6-yl)-2-pyridyl]-7-methyl-1,7-diazaspiro[4.4]nonan-6-one hydrochloride], the IC50 reads like this: under setting [1], 158 µM; under setting [2], 6310 µM.

As to `CN1CC[C@@]2(CC[C@H](c3cc(-c4cccc5[nH]ncc45)ccn3)N2)C1=O` [Example 187, (2R,5S)-2-[4-(1H-Indazol-4-yl)-2-pyridyl]-7-methyl-1,7-diazaspiro[4.4]nonan-6-one hydrochloride], the IC50 under setting [1] was 200 µM and the IC50 under setting [2] was 1000 µM.

Take `COCc1ccc(F)c(-c2ccnc([C@H]3CC[C@@]4(CCN(C)C4=O)N3)c2)c1` [Example 188, (2R,5S)-2-[4-[2-Fluoro-5-(methoxymethyl)phenyl]-2-pyridyl]-7-methyl-1,7-diazaspiro[4.4]nonan-6-one hydrochloride]: the IC50 is, setting by setting: under setting [1], 100 µM; under setting [2], 501 µM.

Turning to `CCOCc1ccc(F)c(-c2ccnc([C@H]3CC[C@@]4(CCN(C)C4=O)N3)c2)c1` [Example 189, (2R,5S)-2-[4-[5-(Ethoxymethyl)-2-fluoro-phenyl]-2-pyridyl]-7-methyl-1,7-diazaspiro[4.4]nonan-6-one hydrochloride], the IC50 is 25.1 µM under setting [1] and 251 µM under setting [2].

`CCOc1ccc(-c2ccnc([C@H]3CC[C@@]4(CCN(C)C4=O)N3)c2)cc1OCC` [Example 190, (2R,5S)-2-[4-(3,4-Diethoxyphenyl)-2-pyridyl]-7-methyl-1,7-diazaspiro[4.4]nonan-6-one hydrochloride]: the IC50 was 100 µM under setting [1] and 10000 µM under setting [2].

For `CN1CC[C@@]2(CC[C@H](c3cc(-c4cc(-c5cnn(C)c5)ccc4F)ccn3)N2)C1=O` [Example 191, (2R,5S)-2-[4-[2-Fluoro-5-(1-methylpyrazol-4-yl)phenyl]-2-pyridyl]-7-methyl-1,7-diazaspiro[4.4]nonan-6-one hydrochloride], the IC50 runs as follows: under setting [1], 25.1 µM; under setting [2], 398 µM.

Regarding `CN1CC[C@@]2(CC[C@H](c3cc(-c4cc(-c5ccnn5C)ccc4F)ccn3)N2)C1=O` [Example 192, (2R,5S)-2-[4-[2-Fluoro-5-(2-methylpyrazol-3-yl)phenyl]-2-pyridyl]-7-methyl-1,7-diazaspiro[4.4]nonan-6-one hydrochloride], the IC50 under setting [1] was 1000 µM.

Take `Cc1ccnn1-c1ccc(F)c(-c2ccnc([C@H]3CC[C@@]4(CCN(C)C4=O)N3)c2)c1` [Example 193, (2R,5S)-2-[4-[2-Fluoro-5-(5-methylpyrazol-1-yl)phenyl]-2-pyridyl]-7-methyl-1,7-diazaspiro[4.4]nonan-6-one hydrochloride]: the IC50 is, setting by setting: under setting [1], 50.1 µM; under setting [2], 5010 µM.

With `CC(C)COc1cc(-c2ccnc([C@H]3CC[C@@]4(CCN(C)C4=O)N3)c2)ccc1F` [Example 194, (2R,5S)-2-[4-(4-Fluoro-3-isobutoxy-phenyl)-2-pyridyl]-7-methyl-1,7-diazaspiro[4.4]nonan-6-one hydrochloride], the IC50 is 1 µM under setting [1] and 15.8 µM under setting [2].

Turning to `COc1ccc(F)c(-c2cc(C)nc([C@H]3CC[C@@]4(CCN(C)C4=O)N3)c2)c1` [Example 195, (2R,5S)-2-[4-(2-Fluoro-5-methoxy-phenyl)-6-methyl-2-pyridyl]-7-methyl-1,7-diazaspiro[4.4]nonan-6-one hydrochloride], the IC50 by setting is: under setting [1], 5.01 µM; under setting [2], 100 µM.

Turning to `CCCOc1ccc(F)c(-c2cc(C)nc([C@H]3CC[C@@]4(CCN(C)C4=O)N3)c2)c1` [Example 196, (2R,5S)-2-[4-(2-Fluoro-5-propoxy-phenyl)-6-methyl-2-pyridyl]-7-methyl-1,7-diazaspiro[4.4]nonan-6-one hydrochloride], the IC50 by setting is: under setting [1], 0.1 µM; under setting [2], 1.58 µM.

As to `CCOc1cc(F)cc(-c2cc(C)nc([C@H]3CC[C@@]4(CCN(C)C4=O)N3)c2)c1` [Example 197, (2R,5S)-2-[4-(3-Ethoxy-5-fluoro-phenyl)-6-methyl-2-pyridyl]-7-methyl-1,7-diazaspiro[4.4]nonan-6-one hydrochloride], the IC50 reads like this: under setting [1], 5.01 µM; under setting [2], 50.1 µM.

On to `Cc1cc(-c2cc(OC(C)C)ccc2F)cc([C@H]2CC[C@@]3(CCN(C)C3=O)N2)n1` [Example 198, (2R,5S)-2-[4-(2-Fluoro-5-isopropoxy-phenyl)-6-methyl-2-pyridyl]-7-methyl-1,7-diazaspiro[4.4]nonan-6-one hydrochloride], for which the IC50 is 5.01 µM under setting [1] and 63.1 µM under setting [2].

On to `CCOc1cccc(-c2cc(C)nc([C@H]3CC[C@@]4(CCN(C)C4=O)N3)c2)c1F` [Example 199, (2R,5S)-2-[4-(3-Ethoxy-2-fluoro-phenyl)-6-methyl-2-pyridyl]-7-methyl-1,7-diazaspiro[4.4]nonan-6-one hydrochloride], for which the IC50 is 25.1 µM under setting [1] and 158 µM under setting [2].

Take `Cc1cc(-c2cc(OC(F)(F)F)ccc2F)cc([C@H]2CC[C@@]3(CCN(C)C3=O)N2)n1` [Example 200, (2R,5S)-2-[4-[2-Fluoro-5-(trifluoromethoxy)phenyl]-6-methyl-2-pyridyl]-7-methyl-1,7-diazaspiro[4.4]nonan-6-one hydrochloride]: the IC50 by setting is: under setting [1], 2 µM; under setting [2], 31.6 µM.

Take `CCCOc1ccc(F)c(-c2cc(C)nc([C@@H]3CC[C@]4(CCN(C)C4=O)N3)c2)c1` [Example 201, (2S,5R)-2-[4-(2-Fluoro-5-propoxy-phenyl)-6-methyl-2-pyridyl]-7-methyl-1,7-diazaspiro[4.4]nonan-6-one hydrochloride]: the IC50 was 0.126 µM under setting [1] and 5.01 µM under setting [2].

`CCOc1cc(-c2cc(C)nc([C@H]3CC[C@@]4(CCN(C)C4=O)N3)c2)c(F)cc1C` [Example 202, (2R,5S)-2-[4-(5-Ethoxy-2-fluoro-4-methyl-phenyl)-6-methyl-2-pyridyl]-7-methyl-1,7-diazaspiro[4.4]nonan-6-one hydrochloride]: the IC50 by setting is: under setting [1], 3.16 µM; under setting [2], 31.6 µM.

For `Cc1cc(-c2cc(N3CCCC3=O)ccc2F)cc([C@H]2CC[C@@]3(CCN(C)C3=O)N2)n1` [Example 203, (2R,5S)-2-[4-[2-Fluoro-5-(2-oxopyrrolidin-1-yl)phenyl]-6-methyl-2-pyridyl]-7-methyl-1,7-diazaspiro[4.4]nonan-6-one hydrochloride], the IC50 reads like this: under setting [1], 251 µM; under setting [2], 2000 µM.

Consider `CCc1ccc(F)c(-c2cc(C)nc([C@H]3CC[C@@]4(CCN(C)C4=O)N3)c2)c1` [Example 204, (2R,5S)-2-[4-(5-Ethyl-2-fluoro-phenyl)-6-methyl-2-pyridyl]-7-methyl-1,7-diazaspiro[4.4]nonan-6-one hydrochloride], for which the IC50 is 5.01 µM under setting [1] and 31.6 µM under setting [2].
